Where two headings read alike, the source gives them in different places.
Assays:
Experiment in all cases: In vitro inhibition, CellTiter-Glo (CTG) assay, 72 hr exposure
Format in all cases: cell-based
[1] = tested on: HCT-116
Protocol: (§1) Cells were grown in RPMI-1640 supplemented with L-Glutamine and 10% FBS of the following cell lines:
(§2) CCRF-CEM; CCRF-CEM-cytarabine resistant; HL-60; K562; CFPAC-1; MiaPACA-2; BxPC-3; PANC-1; HepG2; MDA-MB-231; HCT-116; A498; and NCI-H69
(§3) 18, 96 well plates of each cell line were seeded with the optimized number of cells per well in a total volume of 50 μL per well. The plates were left overnight. Plate wells were seeded with 100 μL media for media control. The following day, cells were exposed to test compounds as described below. At the same time as drug exposure, a CTG assay was conducted on the 18th plate for the 0 hr count.
(§4) The compounds were added to cells and medium already on the plate to give desired final concentrations. 50 μL media were added to cell control wells, and 50 μL of mix added to vehicle control wells. 10 μM Doxorubicin was added to appropriate wells. Cells exposed to test compound were incubated at 37° C. for 72 hr followed by a CTG assay.
(§5) At the end of the 72 hr exposure period, plates were removed for a CellTiter-Glo (CTG) assay from a 37° C., 5% CO2 incubator and placed on the bench at room temperature for 30 mins. 100 μL of CellTiter-Glo reagent was added and mixed for 2 mins, followed by a further 10 min incubation at room temperature. Luminescence was recorded using Synergy 4.0.

[2] = tested on: HepG2
Protocol: as §1, §2, §3, §4, §5

[3] = tested on: K562; conditions: K562, 72 hr
Protocol: as §1, §2, §3, §4, §5

[4] = tested on: BxPC-3
Protocol: as §1, §2, §3, §4, §5

[5] = tested on: MiaPACA-2
Protocol: as §1, §2, §3, §4, §5

[6] = tested on: CCRF-CEM
Protocol: as §1, §2, §3, §4, §5

[7] = tested on: A498
Protocol: as §1, §2, §3, §4, §5

[8] = tested on: HL-60
Protocol: as §1, §2, §3, §4, §5

[9] = tested on: PANC-1; conditions: PANC-1, 72 hr
Protocol: as §1, §2, §3, §4, §5

[10] = tested on: MDA-MB-231; conditions: MDA-MB-231, 72 hr
Protocol: as §1, §2, §3, §4, §5

[11] = tested on: NCI-H69
Protocol: as §1, §2, §3, §4, §5

[12] = tested on: CFPAC-1
Protocol: as §1, §2, §3, §4, §5

[13] = tested on: CCRF-CEM-cytarabine resistant
Protocol: as §1, §2, §3, §4, §5

[14] = Homo sapiens, MIA PaCa-2, MiaPACA-2, 72 hr

| Structure (SMILES) | IC50 ([1]; HCT-116, 72 hr) [µM] | IC50 ([2]; HepG2, 72 hr) [µM] | IC50 ([3]; Homo sapiens) [µM] | IC50 ([5]; MiaPACA-2, 72 hr) [µM] | IC50 [9] [µM] | IC50 [10] [µM] | IC50 ([11]; NCI-H69, 72 hr) [µM] | IC50 [13] [µM] | IC50 ([2]; Homo sapiens, HepG2, 72 h) [µM] | IC50 ([4]; BxPC-3, 72 hr) [µM] | IC50 [5, 14] [µM] | IC50 ([6]; Homo sapiens, 72 h) [µM] | IC50 ([8]; Homo sapiens, HL-60, 72 h) [µM] | IC50 ([9]; Homo sapiens) [µM] | IC50 ([10]; Homo sapiens) [µM] | IC50 [3] [µM] | IC50 [6] [µM] | IC50 ([8]; HL-60, 72 hr) [µM] | IC50 ([7]; A498, 72 hr) [µM] | IC50 ([12]; CFPAC-1, 72 hr) [µM] | also measured |
| --- | --- | --- | --- | --- | --- | --- | --- | --- | --- | --- | --- | --- | --- | --- | --- | --- | --- | --- | --- | --- | --- |
| CC(C)OC(=O)[C@H](C)NP(=O)(OC[C@H]1S[C@@H](n2ccc(N)nc2=O)[C@@H](O)[C@@H]1O)Oc1ccccc1 (single isomer, unassigned) [Compound 101b (diastereoisomer 2)] | 1 to 10 | 1 to 10 | 10 to 100 | 1 to 10 | 10 to 100 | 10 to 100 | 10 to 100 | 1 to 10 |  |  |  |  |  |  |  |  |  |  | 10 to 100 |  | IC50 ([4]; Homo sapiens, BxPC-3, 72 hr): 10 to 100 µM; IC50 ([6]; Homo sapiens): < 1 µM; IC50 ([8]; Homo sapiens, HL-60, 72 hr): 1 to 10 µM; IC50 ([12]; Homo sapiens, CFPAC-1, 72 hr): 10 to 100 µM |
| CC(C)OC(=O)[C@H](C)NP(=O)(OC[C@H]1S[C@@H](n2ccc(N)nc2=O)[C@@H](O)[C@@H]1O)Oc1ccccc1 (single isomer, unassigned) [Compound 101b (diastereoisomer 1)] | 10 to 100 | 10 to 100 |  | 10 to 100 |  |  |  | 10 to 100 |  | 10 to 100 |  |  |  | 10 to 100 | 10 to 100 | 10 to 100 | < 1 | 1 to 10 |  | 10 to 100 | IC50 ([7]; Homo sapiens, A498, 72 hr): 10 to 100 µM; IC50 ([11]; Homo sapiens, NCI-H69, 72 hr): 10 to 100 µM |
| Cn1c(COP(=O)(NCc2ccccc2)O[C@H]2[C@H](O)[C@H](n3ccc(N)nc3=O)S[C@@H]2CO)cnc1[N+](=O)[O-] (mixture of isomers) [Compound 106b (mixture of diastereoisomers), 4-amino-1-[(2R,3S,4S,5R)-4-[(benzylamino)-[(3-methyl-2-nitro-imidazol-4-yl)methoxy]phosphoryl]oxy-3-hydroxy-5-(hydroxymethyl)tetrahydrothiophen-2-yl]pyrimidin-2-one] |  |  | 10 to 100 |  |  |  |  | 10 to 100 | 10 to 100 |  | 10 to 100 | 10 to 100 | 10 to 100 | 10 to 100 | 10 to 100 |  |  |  |  |  | IC50 ([1]; Homo sapiens, HCT-116, 72 h): 10 to 100 µM; IC50 ([4]; Homo sapiens, BXPC-3, 72 h): 10 to 100 µM; IC50 ([7]; Homo sapiens, A498, 72 h): 10 to 100 µM; IC50 ([11]; Homo sapiens, NCI-H69, 72 h): 10 to 100 µM; IC50 ([12]; Homo sapiens, CFPAC-1, 72 h): 10 to 100 µM |
| CC(C)(C)SSCCOP(=O)(NCc1ccccc1)OC[C@H]1S[C@@H](n2ccc(N)nc2=O)[C@@H](O)[C@@H]1O (single isomer, unassigned) [Compound 105 (diastereoisomer 1)] |  |  | 10 to 100 |  |  |  | 1 to 10 | 10 to 100 | 10 to 100 |  | 1 to 10 |  |  | 10 to 100 | 10 to 100 |  | 1 to 10 | 1 to 10 |  |  | IC50 ([1]; Homo sapiens, HCT-116, 72 h): 10 to 100 µM; IC50 ([4]; Homo sapiens, BXPC-3, 72 h): 10 to 100 µM; IC50 ([7]; Homo sapiens, A498, 72 h): 10 to 100 µM; IC50 ([12]; Homo sapiens, CFPAC-1, 72 h): 10 to 100 µM |

Further lines, with some results ahead:

| IC50 ([1]; HCT-116, 72 hr) [µM] | IC50 ([2]; HepG2, 72 hr) [µM] | IC50 ([3]; Homo sapiens) [µM] | IC50 ([5]; MiaPACA-2, 72 hr) [µM] | IC50 [9] [µM] | IC50 [10] [µM] | IC50 ([11]; NCI-H69, 72 hr) [µM] | IC50 [13] [µM] | IC50 ([2]; Homo sapiens, HepG2, 72 h) [µM] | IC50 ([4]; BxPC-3, 72 hr) [µM] | IC50 [5, 14] [µM] | IC50 ([6]; Homo sapiens, 72 h) [µM] | IC50 ([8]; Homo sapiens, HL-60, 72 h) [µM] | IC50 ([9]; Homo sapiens) [µM] | IC50 ([10]; Homo sapiens) [µM] | IC50 [3] [µM] | IC50 [6] [µM] | IC50 ([8]; HL-60, 72 hr) [µM] | Structure (SMILES) | IC50 ([7]; A498, 72 hr) [µM] | IC50 ([12]; CFPAC-1, 72 hr) [µM] | also measured |
| --- | --- | --- | --- | --- | --- | --- | --- | --- | --- | --- | --- | --- | --- | --- | --- | --- | --- | --- | --- | --- | --- |
| 10 to 100 |  | 1 to 10 |  |  |  | 10 to 100 | 1 to 10 | 1 to 10 | 10 to 100 | 1 to 10 | < 1 | < 1 | 10 to 100 | 10 to 100 |  |  |  | Nc1ccn([C@@H]2S[C@H](COP(=O)(NCc3ccccc3)OCc3ccc([N+](=O)[O-])o3)[C@@H](O)[C@@H]2O)c(=O)n1 (single isomer, unassigned) [Compound 103 (diastereoisomer 1)] | 10 to 100 | 10 to 100 |  |
|  | 1 to 10 | 10 to 100 |  |  |  |  | 10 to 100 |  |  | 10 to 100 | < 1 | 1 to 10 | 10 to 100 | 10 to 100 |  |  |  | COC(=O)COP(=O)(N[C@@H](CC(C)C)C(=O)OC)OC[C@H]1S[C@@H](n2ccc(N)nc2=O)[C@@H](O)[C@@H]1O (single isomer, unassigned) [Compound 104b (diastereoisomer 1)] |  |  | IC50 ([1]; Homo sapiens, HCT-116, 72 h): 10 to 100 µM; IC50 ([4]; Homo sapiens, BXPC-3, 72 h): 10 to 100 µM; IC50 ([7]; Homo sapiens, A498, 72 h): 10 to 100 µM; IC50 ([11]; Homo sapiens, NCI-H69, 72 h): 10 to 100 µM; IC50 ([12]; Homo sapiens, CFPAC-1, 72 h): 10 to 100 µM |
| 10 to 100 | 10 to 100 |  | 1 to 10 | 10 to 100 | 10 to 100 | 10 to 100 | 10 to 100 |  | 10 to 100 |  |  |  |  |  | 10 to 100 | 10 to 100 | 10 to 100 | CC(C)(C)SSCCOP(=O)(NCc1ccccc1)OC[C@H]1S[C@@H](n2ccc(N)nc2=O)[C@@H](O)[C@@H]1O (single isomer, unassigned) [Compound 105 (diastereoisomer 2)] | 10 to 100 | 10 to 100 |  |
| 10 to 100 | 10 to 100 |  | 10 to 100 | 10 to 100 | 10 to 100 | 10 to 100 | 10 to 100 |  | 10 to 100 |  |  |  |  |  | 10 to 100 | < 1 | < 1 | COC(=O)COP(=O)(N[C@@H](CC(C)C)C(=O)OC)OC[C@H]1S[C@@H](n2ccc(N)nc2=O)[C@@H](O)[C@@H]1O (single isomer, unassigned) [Compound 104b (diastereoisomer 2)] | 10 to 100 | 10 to 100 |  |
| 10 to 100 | 10 to 100 |  | 10 to 100 | 10 to 100 | 10 to 100 | 10 to 100 | 10 to 100 |  | 10 to 100 |  |  |  |  |  | 10 to 100 | < 1 | 1 to 10 | CCOC(=O)COP(=O)(N[C@@H](CC(C)C)C(=O)OCC)OC[C@H]1S[C@@H](n2ccc(N)nc2=O)[C@@H](O)[C@@H]1O (single isomer, unassigned) [Compound 102b (diastereoisomer 2)] | 10 to 100 | 10 to 100 |  |

From patent US10815264B2, “Nucleotides for the treatment of cancer” (IDENIX PHARMACEUTICALS LLC, priority 2015, dated 2020)
